The text below walks through data of patent US6239111A, “In vivo method of improving survival rate of brain neurons” (Wakunaga Pharmaceutical Co., Ltd., priority 1996, dated 2001).

Read-outs that look alike come from different tables or passages of the source.

For data set [1], the system named is hippocampus neurons. Put plainly: Inhibition of reduction in survival rate of rat embryonic hippocampus neurons in serum-free culture. The data set is classed as cell-based. To be noted: for viability at 1 µg/mL / viability at 0.1 µg/mL / viability at 0.01 µg/mL / viability at 0.001 µg/mL / viability at 0.0001 µg/mL: Rattus norvegicus, Neuron, 72 h, read-out: survival rate of neurons (control group taken as 100%); for viability at 1 µg/mL: 10^-6 g/ml; for inhibitory effect against reduction in survival rate of hippocampus neurons (in words): within the range of 1-1,000 ng/ml. An excerpt: From a rat at the 18th day of pregnancy (having an 18-day old embryo) the uterus was aseptically removed under etherification, and the fetus was obtained. The whole brain was collected from the fetus. From the brain placed in an L-15 medium, the hippocampus was separated under a microscope and minced with a knife. […] The thus-isolated cells were suspended in Eagle's MEM medium supplemented with 10% fetal calf serum, and inoculated at a concentration of 4×10^4 cells/cm^2 into wells of a 48-well plate which had been coated with poly-L-lysin in advance. […] After three-days' additional incubation, the cells were fixed, stained, and the number of surviving cells in each well was counted.
When the survival rate of the neurons in the control group was taken as 100%: […]

The test system of data set [2] is neurites of hippocampus cells. Put plainly: Branching promotion effect on neurites of hippocampus cells. The format is cell-based, rat. Particulars: number of branches from the longest neurite, one and two days after addition, FIG. 1. Here is the method:
The hippocampus cells obtained in a manner similar to that in Example 1 were incubated for 24 hours in a medium containing fetal calf serum, then for further 24 hours in a serum-free medium. Subsequently, compound (1-1) was added. When compound (1-1) was added, and at the times of one and two days after addition, photographs were taken of the same cells. The number of branches from the longest neurite was counted.

Data set [3] can be described thus: Oral acute toxicity (LD50) in rats. To be noted: rat, in vivo, oral administration.
Data set [4] can be described thus: Oral acute toxicity (LD50) in mice. To be noted: mouse, in vivo, oral administration.
The mark [5] stands for this setting: three days' incubation, serum-free medium.
[6] abbreviates: 10^-7 g/ml, three days' incubation, serum-free medium.
The mark [7] stands for this setting: 10^-8 g/ml, three days' incubation, serum-free medium.
Where [8] appears, read: 10^-9 g/ml, three days' incubation, serum-free medium.
Setting [9] is: 10^-10 g/ml, three days' incubation, serum-free medium.

Take `C=CC[S+]([O-])C[C@H](N)C(=O)O` (stereo partly drawn) [(1-2)]: the viability at 1 µg/mL in data set [1] (setting [5]) was in the range of 130 to 150%. Also, the viability at 0.1 µg/mL in data set [1] (setting [6]) lay within 130 to 150%. In addition, in data set [1] (setting [7]), the viability at 0.01 µg/mL lay within 110 to 130%. The viability at 0.001 µg/mL in data set [1] (setting [8]) was in the range of 110 to 130%. Also, the viability at 0.0001 µg/mL in data set [1] (setting [9]) lay in the range of 90 to 110%.
On to `C=CCS(=O)(=O)C[C@H](N)C(=O)O` [(1-3)], for which the viability at 1 µg/mL in data set [1] (setting [5]) lay within 130 to 150%. For the same compound, in data set [1] (setting [6]), the viability at 0.1 µg/mL is 110 to 130%. Also, in data set [1] (setting [7]), the viability at 0.01 µg/mL lay in the range of 110 to 130%. Further, the viability at 0.001 µg/mL in data set [1] (setting [8]) lay in the range of 110 to 130%.
With `C=CCSSC[C@H](N)C(=O)O` [(1-4)], in data set [1] (setting [5]), the viability at 1 µg/mL lay in the range of 90 to 110%. In addition, the viability at 0.1 µg/mL in data set [1] (setting [6]) lay within 130 to 150%. Moreover, in data set [1] (setting [7]), the viability at 0.01 µg/mL was in the range of 110 to 130%. In data set [1] (setting [8]), the viability at 0.001 µg/mL fell in the range of 90 to 110%. Further, the viability at 0.0001 µg/mL in data set [1] (setting [9]) is 90 to 110%.
Consider `C=CCSC[C@H](NC(C)=O)C(=O)O` [(1-5)], for which the viability at 1 µg/mL in data set [1] (setting [5]) fell in the range of 110 to 130%. Besides, the viability at 0.1 µg/mL in data set [1] (setting [6]) is 110 to 130%. Also, the viability at 0.01 µg/mL in data set [1] (setting [7]) was 110 to 130%. The viability at 0.001 µg/mL in data set [1] (setting [8]) was in the range of 90 to 110%.
As to `C=CCSC[C@H](NC(=O)CC[C@H](N)C(=O)O)C(=O)O` [(1-6)], the viability at 1 µg/mL in data set [1] (setting [5]) lay within 130 to 150%. In data set [1] (setting [6]), the viability at 0.1 µg/mL was 130 to 150%. Further, in data set [1] (setting [7]), the viability at 0.01 µg/mL lay in the range of 130 to 150%. Further, in data set [1] (setting [8]), the viability at 0.001 µg/mL is 90 to 110%. For the same compound, the viability at 0.0001 µg/mL in data set [1] (setting [9]) lay in the range of 90 to 110%.
As to `C=CCSC[C@H](NC(=O)CC[C@H](N)C(=O)O)C(=O)NCC(=O)O` [(1-7)], the viability at 1 µg/mL in data set [1] (setting [5]) fell in the range of 130 to 150%. In addition, the viability at 0.1 µg/mL in data set [1] (setting [6]) was in the range of 130 to 150%. Further, the viability at 0.01 µg/mL in data set [1] (setting [7]) lay in the range of 90 to 110%. In addition, the viability at 0.001 µg/mL in data set [1] (setting [8]) lay within 90 to 110%. Besides, the viability at 0.0001 µg/mL in data set [1] (setting [9]) was 90 to 110%.
As for `C=CCSCC[C@H](N)C(=O)O` [(1-9)], the viability at 1 µg/mL in data set [1] (setting [5]) lay in the range of 90 to 110%. The viability at 0.1 µg/mL in data set [1] (setting [6]) was 110 to 130%. The viability at 0.01 µg/mL in data set [1] (setting [7]) is 90 to 110%.
Take `C=CCS` [(1-10)]: the viability at 1 µg/mL in data set [1] (setting [5]) lay in the range of 110 to 130%. In data set [1] (setting [6]), the viability at 0.1 µg/mL lay within 110 to 130%. Further, the viability at 0.01 µg/mL in data set [1] (setting [7]) was 110 to 130%. Further, the viability at 0.001 µg/mL in data set [1] (setting [8]) is 90 to 110%. The viability at 0.0001 µg/mL in data set [1] (setting [9]) was 90 to 110%.
As to `C=CCSCC=C` [(1-11)], in data set [1] (setting [5]), the viability at 1 µg/mL lay in the range of 110 to 130%. For the same compound, in data set [1] (setting [6]), the viability at 0.1 µg/mL fell in the range of 110 to 130%. Also, in data set [1] (setting [7]), the viability at 0.01 µg/mL lay within 110 to 130%. Further, the viability at 0.001 µg/mL in data set [1] (setting [8]) was in the range of 90 to 110%. Moreover, the viability at 0.0001 µg/mL in data set [1] (setting [9]) was in the range of 90 to 110%.
Take `C=CCSSCC=C` [(1-12)]: in data set [1], the viability at 0.0001 µg/mL lay in the range of 90 to 110%, the viability at 0.001 µg/mL lay within 90 to 110%, the viability at 0.01 µg/mL was in the range of 110 to 130% and the viability at 0.1 µg/mL was in the range of 110 to 130%.
`C=CCSC(CC(=O)O)C(=O)O` (stereo not drawn) [(1-13)]: the viability at 1 µg/mL in data set [1] (setting [5]) is 110 to 130%. Also, the viability at 0.1 µg/mL in data set [1] (setting [6]) lay within 110 to 130%. For the same compound, the viability at 0.01 µg/mL in data set [1] (setting [7]) lay in the range of 90 to 110%.
For `C=CCSc1ccccc1C(=O)O` [(1-14)], the viability at 1 µg/mL in data set [1] (setting [5]) was 110 to 130%. The viability at 0.1 µg/mL in data set [1] (setting [6]) lay in the range of 110 to 130%. In addition, the viability at 0.01 µg/mL in data set [1] (setting [7]) lay in the range of 90 to 110%.
On to `C=CCSc1nc2ccccc2o1` [(1-15)], for which, in data set [1] (setting [5]), the viability at 1 µg/mL lay within 110 to 130%. For the same compound, the viability at 0.1 µg/mL in data set [1] (setting [6]) is 110 to 130%. In addition, the viability at 0.01 µg/mL in data set [1] (setting [7]) was in the range of 90 to 110%.
By LD50 is commonly meant the dose at which mortality reaches 50%. A low value points to a more toxic substance. On to `C=CCSC[C@H](N)C(=O)O` [Compound (1-1)], for which the viability at 1 µg/mL in data set [1] (setting [5]) lay in the range of 130 to 150%. In data set [1] (setting [6]), the viability at 0.1 µg/mL lay within 130 to 150%. The viability at 0.01 µg/mL in data set [1] (setting [7]) fell in the range of 110 to 130%. Also, in data set [1] (setting [8]), the viability at 0.001 µg/mL was 110 to 130%. For the same compound, the viability at 0.0001 µg/mL in data set [1] (setting [9]) fell in the range of 90 to 110%. Also, the “branching promotion effect on neurites” value in data set [2] was “confirmed to have branching promotion effect on neurites”. The LD50 in data set [3] and in data set [4] was ≥ 1000 mg/kg each time.
Regarding `N[C@@H](CS)C(=O)O` [L-cysteine, reference compound], the “inhibitory effect against reduction in survival rate of hippocampus neurons (in words)” value (“inhibitory effect against reduction” below) in data set [1] was “No inhibitory effect”.
Still for that read-out and setting: as for `C=CCNC(N)=O` [N-allyl urea, reference compound], the entry is “No inhibitory effect”; as for `C=CCOC(=O)[C@@H](N)CS` [O-allyl-L-cysteine, reference compound], “No inhibitory effect”.
The same measure, in the same setting: as for `CC=CSC[C@H](N)C(=O)O` [S-(1-propenyl)-L-cysteine, reference compound], the entry is “No inhibitory effect”; as for `C=CCCSC[C@H](N)C(=O)O` [S-(3-butenyl)-L-cysteine, reference compound], “No inhibitory effect”.
On to `CSC[C@H](N)C(=O)O` [S-methyl-L-cysteine, reference compound], for which the “inhibitory effect against reduction” value in data set [1] is reported as “No inhibitory effect”.
Same read-out and setting: to `C[S+]([O-])C[C@H](N)C(=O)O` (stereo partly drawn) [S-methyl-L-cysteinesulfoxide, reference compound] belongs “No inhibitory effect”; to `C#CCSC[C@H](N)C(=O)O` [S-propargyl-L-cysteine, reference compound], “No inhibitory effect”.
Regarding `CCCSC[C@H](N)C(=O)O` [S-propyl-L-cysteine, reference compound], the “inhibitory effect against reduction” value in data set [1] is recorded as “No inhibitory effect”.
The same measure, in the same setting: to `C=CCO` [allyl alcohol, reference compound] belongs “No inhibitory effect”; to `C=CCNCC(=O)O` [allyl glycine, reference compound], “No inhibitory effect”.
On the same count and under the same terms, as for `C=CCOCC=C` [diallyl ether, reference compound], the entry is “No inhibitory effect”; as for `CCCSSCCC` [dipropyldisulfide, reference compound], “No inhibitory effect”.
In the case of `CCCSCCC` [dipropylsulfide, reference compound], the “inhibitory effect against reduction” value in data set [1] was “No inhibitory effect”.
As to `C=CCc1ccc(O)c(OC)c1` [eugenol, reference compound], the “inhibitory effect against reduction” value in data set [1] is reported as “No inhibitory effect”.
As to `CCCSC[C@H](NC(=O)CC[C@H](N)C(=O)O)C(=O)O` [gamma-glutamyl-S-propyl-L-cysteine, reference compound], the “inhibitory effect against reduction” value in data set [1] was “No inhibitory effect”.
